In this assay the target is T1, recombinant human ALX receptor (Homo sapiens, UniProt P25090).
T1 construct: expressed in transfected cells; host or cells: HEK293 (HEK293-hALXR-Gα16)
T1 sequence (P25090 1-351): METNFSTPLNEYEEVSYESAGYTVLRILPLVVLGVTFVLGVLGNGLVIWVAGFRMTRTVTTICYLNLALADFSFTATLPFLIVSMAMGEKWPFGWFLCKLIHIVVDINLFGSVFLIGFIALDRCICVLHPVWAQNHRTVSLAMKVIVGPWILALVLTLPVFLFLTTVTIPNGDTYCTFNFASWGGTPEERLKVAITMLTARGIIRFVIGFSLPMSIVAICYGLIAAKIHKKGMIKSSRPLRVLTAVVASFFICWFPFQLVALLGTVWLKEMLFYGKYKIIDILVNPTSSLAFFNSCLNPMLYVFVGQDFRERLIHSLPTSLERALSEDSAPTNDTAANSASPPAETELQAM
The assay can be described thus: Intracellular calcium measurements (FLIPR), ALX receptor agonistic activity. Format: cell-based. The note with it: HEK293-hALXR-Gα16 cells, Fluo-4 calcium signal, normalized to WKYMVm 10 nM. The method, then: The ALX receptor agonistic activity of the compounds of formula (I) is determined in accordance with the following experimental method.
Intracellular Calcium Measurements:
Cells expressing recombinant human ALX receptor and the G-protein Gα16 (HEK293-hALXR-Gα16) were grown to 80% confluency in Growing Medium (GM). Cells were detached from culture dishes with a cell dissociation buffer (Invitrogen, 13151-014), and collected by centrifugation at 1′000 rpm at rt for 5 min in Assay Buffer (AB) (equal parts of Hank's BSS (Gibco, 14065-049) and DMEM without Phenol Red (Gibco, 11880-028)). After 60 min incubation at 37° C. under 5% CO2 in AB supplemented with 1 μM Fluo-4 (AM) (Invitrogen, F14202) and 20 mM HEPES (Gibco, 15630-056), the cells were washed and resuspended in AB. They were then seeded onto 384-well FLIPR assay plates (Greiner, 781091) at 50′000 cells in 70 μl per well and sedimented by centrifugation at 1′000 rpm for 1 min. Stock solutions of test compounds were made up at a concentration of 10 mM in DMSO, and serially diluted in AB to concentrations required for activation dose response curves. WKYMVm (Phoenix Peptides) was used as a reference agonist. A FLIPR Tetra instrument (Molecular Devices) was operated according to the manufacturer's standard instructions, adding 4 μl of test compound dissolved at 10 mM in DMSO and diluted prior to the experiment in assay buffer to obtain the desired final concentration. Changes in fluorescence were monitored before and after the addition of test compounds at lex=488 nm and lem=540 nm. Emission peak values above base level after compounds addition were exported after base line subtraction. Values were normalized to high-level control (WKYMVm compound, 10 nM final concentration) after subtraction of the base line value (AB addition).
Background: Calcium flux is commonly read through the fluorescence of an indicator in the cells.

pEC50: −log10 of the molar value. Structures can show the parent of a compound that is named as a salt.

Usually pEC50 stands for −log10 of the EC50, conventionally taken in molar units. For “1-(1-(1H-Benzo[d]imidazol-2-yl)-2-(3,5-difluoro-4-methoxyphenyl)ethyl)-3-(4-hydroxybicyclo[2.2.2]octan-1-yl)urea [Example 242]”, the pEC50 was 7.15. On to `C[C@]1(O)CC[C@H](NC(=O)NC(Cc2ccc(Br)c(F)c2)c2nc3ccccc3[nH]2)CC1` (mixture of isomers) [Example 231, 1-(1-(1H-Benzo[d]imidazol-2-yl)-2-(4-bromo-3-fluorophenyl)ethyl)-3-(trans-4-hydroxy-4-methylcyclohexyl)urea], for which the pEC50 is 8.28.

Regarding `COc1ccc(CC(NC(=O)N[C@H]2CC[C@](C)(O)CC2)c2nc3ccccc3[nH]2)c(F)c1` (mixture of isomers) [Example 234, 1-(1-(1H-Benzo[d]imidazol-2-yl)-2-(2-fluoro-4-methoxyphenyl)ethyl)-3-(trans-4-hydroxy-4-methylcyclohexyl)urea], the pEC50 was 8.29.

On to `COc1cc(F)c(CC(NC(=O)N[C@H]2CC[C@](C)(O)CC2)c2nc3ccccc3[nH]2)c(F)c1` (mixture of isomers) [Example 236, 1-(1-(1H-Benzo[d]imidazol-2-yl)-2-(2,6-difluoro-4-methoxyphenyl)ethyl)-3-(trans-4-hydroxy-4-methylcyclohexyl)urea], for which the pEC50 was 8.46.

For the compound `C[C@]1(O)CC[C@H](NC(=O)NC(Cc2ccc(C(F)(F)F)c(F)c2)c2nc3ccccc3[nH]2)CC1` (mixture of isomers) [Example 239, 1-(1-(1H-Benzo[d]imidazol-2-yl)-2-(3-fluoro-4-(trifluoromethyl)phenyl)ethyl)-3-(trans-4-hydroxy-4-methylcyclohexyl)urea], the pEC50 is 7.11.

Regarding `COc1c(F)cc(CC(NC(=O)N[C@H]2CC[C@](C)(O)CC2)c2nc3ccccc3[nH]2)cc1F` (mixture of isomers) [Example 243, 1-(1-(1H-Benzo[d]imidazol-2-yl)-2-(3,5-difluoro-4-methoxyphenyl)ethyl)-3-(trans-4-hydroxy-4-methylcyclohexyl)urea], the pEC50 is 6.81. In the case of `COc1ccc(CC(NC(=O)N[C@H]2CC[C@](C)(O)CC2)c2nc3ccc(F)cc3[nH]2)c(F)c1` (mixture of isomers) [Example 246, 1-(1-(6-Fluoro-1H-benzo[d]imidazol-2-yl)-2-(2-fluoro-4-methoxyphenyl)ethyl)-3-(trans-4-hydroxy-4-methylcyclohexyl)urea] it was 8.74; in that of `COc1cc(F)c(CC(NC(=O)N[C@H]2CC[C@](C)(O)CC2)c2nc3ccccc3[nH]2)cc1F` (mixture of isomers) [Example 250, 1-(1-(1H-Benzo[d]imidazol-2-yl)-2-(2,5-difluoro-4-methoxyphenyl)ethyl)-3-(trans-4-hydroxy-4-methylcyclohexyl)urea], 8.14; in that of `COc1ccc(CC(NC(=O)N[C@H]2CC[C@](C)(O)CC2)c2nc3ccccc3[nH]2)c(F)c1F` (mixture of isomers) [Example 252, 1-(1-(1H-Benzo[d]imidazol-2-yl)-2-(2,3-difluoro-4-methoxyphenyl)ethyl)-3-(trans-4-hydroxy-4-methylcyclohexyl)urea], 7.77. In the case of `C[C@]1(O)CC[C@H](NC(=O)NC(Cc2ccc(Br)cc2F)c2nc3ccccc3[nH]2)CC1` (mixture of isomers) [Example 253, 1-(1-(1H-Benzo[d]imidazol-2-yl)-2-(4-bromo-2-fluorophenyl)ethyl)-3-(trans-4-hydroxy-4-methylcyclohexyl)urea], the pEC50 is 7.60.

As to `COc1ccc(CC(C)(NC(=O)N[C@H]2CC[C@H](O)CC2)c2nc3ccccc3[nH]2)cc1` (relative stereo) [Example 1, 1-(2-(1H-Benzo[d]imidazol-2-yl)-1-(4-methoxyphenyl)propan-2-yl)-3-(trans-4-hydroxycyclohexyl)urea], the pEC50 was 6.82. The value for `COc1ccc(C2(C(NC(=O)N[C@H]3CC[C@H](O)CC3)c3nc4ccccc4[nH]3)CC2)cc1` (relative stereo) [Example 2, 1-((1H-Benzo[d]imidazol-2-yl)(1-(4-methoxyphenyl)cyclopropyl)methyl)-3-(trans-4-hydroxycyclohexyl)urea] was 7.09; that for `COc1ccc(C(C)(C)C(NC(=O)N[C@H]2CC[C@H](O)CC2)c2nc3ccccc3[nH]2)cc1` (relative stereo) [Example 3, 1-(1-(1H-Benzo[d]imidazol-2-yl)-2-(4-methoxyphenyl)-2-methylpropyl)-3-(trans-4-hydroxycyclohexyl)urea] was 6.92. In the case of `COc1ccc(C[C@@H](NC(=O)N[C@H]2C[C@@H]2c2ccccc2)c2nc3ccccc3[nH]2)cc1` (relative stereo) [Example 16, 1-((R)-1-(1H-Benzo[d]imidazol-2-yl)-2-(4-methoxyphenyl)ethyl)-3-((1 S*,2R*)-2-phenylcyclopropyl)urea hydrochloride] it was 6.95. The value for `COc1ccc(C[C@@H](NC(=O)N[C@H]2CCCC[C@H]2C(N)=O)c2nc3ccccc3[nH]2)cc1` (relative stereo) [Example 18, (1R*,2S*)-2-(3-((R)-1-(1H-Benzo[d]imidazol-2-yl)-2-(4-methoxyphenyl)ethyl)ureido)cyclohexanecarboxamide] was 7.54; that for `COc1ccc(C[C@@H](NC(=O)N[C@H]2CCCC[C@@H]2O)c2nc3ccccc3[nH]2)cc1` (relative stereo) [Example 24, 1-((R)-1-(1H-Benzo[d]imidazol-2-yl)-2-(4-methoxyphenyl)ethyl)-3-((1 S*,2S*)-2-hydroxycyclohexyl)urea] was 7.62; that for `CCOC(=O)[C@@H]1CCCC[C@@H]1NC(=O)N[C@H](Cc1ccc(OC)cc1)c1nc2ccccc2[nH]1` (relative stereo) [Example 28, (1R*,2S*)-Ethyl 2-(3-((R)-1-(1H-benzo[d]imidazol-2-yl)-2-(4-methoxyphenyl)ethyl)ureido)cyclohexanecarboxylate] was 8.04. Regarding `CCOC(=O)[C@@H]1CCCC[C@H]1NC(=O)N[C@H](Cc1ccc(OC)cc1)c1nc2ccccc2[nH]1` (relative stereo) [Example 29, trans-Ethyl 2-(3-((R)-1-(1H-benzo[d]imidazol-2-yl)-2-(4-methoxyphenyl)ethyl)ureido)cyclohexanecarboxylate (ent-1)], the pEC50 was 7.25.

On to `COc1ccc(C[C@@H](NC(=O)N[C@H]2CCCC[C@@H]2CO)c2nc3ccccc3[nH]2)cc1` (relative stereo) [Example 32, 1-((R)-1-(1H-Benzo[d]imidazol-2-yl)-2-(4-methoxyphenyl)ethyl)-3-((1 S*,2S*)-2-(hydroxymethyl)cyclohexyl)urea], for which the pEC50 was 7.89. The value for `COc1ccc(C[C@@H](NC(=O)N[C@H]2CCCC[C@H]2CO)c2nc3ccccc3[nH]2)cc1` (relative stereo) [Example 34, 1-((R)-1-(1H-Benzo[d]imidazol-2-yl)-2-(4-methoxyphenyl)ethyl)-3-((1 S*,2R*)-2-(hydroxymethyl)cyclohexyl)urea] was 7.38; that for `COc1ccc(CC(NC(=O)N(C)[C@H]2CC[C@H](O)CC2)c2nc3ccccc3[nH]2)cc1` (relative stereo) [Example 76, 3-(1-(1H-Benzo[d]imidazol-2-yl)-2-(4-methoxyphenyl)ethyl)-1-(trans-4-hydroxycyclohexyl)-1-methylurea] was 6.27. In the case of `CCOc1ccc(CC(NC(=O)N[C@H]2CC[C@H](O)CC2)c2nc3ccccc3[nH]2)cc1` (relative stereo) [Example 77, 1-(1-(1H-Benzo[d]imidazol-2-yl)-2-(4-ethoxyphenyl)ethyl)-3-(trans-4-hydroxycyclohexyl)urea], the pEC50 was 6.69. Take `N#Cc1ccc(CC(NC(=O)N[C@H]2CC[C@H](O)CC2)c2nc3ccccc3[nH]2)cc1` (relative stereo) [Example 78, 1-(1-(1H-Benzo[d]imidazol-2-yl)-2-(4-cyanophenyl)ethyl)-3-(trans-4-hydroxycyclohexyl)urea]: the pEC50 is 6.16. In the case of `CC(C)(C)c1ccc(CC(NC(=O)N[C@H]2CC[C@H](O)CC2)c2nc3ccccc3[nH]2)cc1` (relative stereo) [Example 79, 1-(1-(1H-Benzo[d]imidazol-2-yl)-2-(4-(tert-butyl)phenyl)ethyl)-3-(trans-4-hydroxycyclohexyl)urea] it was 6.15; in that of `COc1ccc(CC(NC(=O)N[C@H]2CC[C@H](OC)CC2)c2nc3ccccc3[nH]2)cc1` (relative stereo) [Example 80, 1-(1-(1H-Benzo[d]imidazol-2-yl)-2-(4-methoxyphenyl)ethyl)-3-(trans-4-methoxycyclohexyl)urea], 6.76.

The record behind these values is patent publication US9663473B2 (Actelion Pharmaceuticals Ltd, priority 2013, dated 2017).
